Series [1] relates to SPNE 9912. Put plainly: Minimum inhibitory concentration (MIC) by agar dilution. Format: cell-based. The settings on record: Streptococcus pneumoniae, lowest concentration of drug that inhibits visible growth of the organism, strain SPNE 9912, read-out: Antibacterial Activity, Minimum Inhibitory Concentration (MIC μg/mL) SPNE 9912. The source says: Compounds of this invention have useful activity against a variety of organisms. The in vitro activity of compounds of this invention can be assessed by standard testing procedures such as the determination of minimum inhibitory concentration (MIC) by agar dilution as described in “Approved Standard. Methods for Dilution Antimicrobial Susceptibility Tests for Bacteria That Grow Aerobically”, 3rd. ed., published 1993 by the National Committee for Clinical Laboratory Standards, Villanova, Pa., USA. Minimum inhibitory concentration (MIC) refers to lowest concentration of drug (μg/mL) that inhibits visible growth of the organism. “- -” refers to the activity data is not available.

Converted amounts (≈) assume the structure as drawn.

Compound `CC(=O)NC[C@H]1CN(c2ccc(N3C=CS(=O)(=O)CC3)c(F)c2)C(=O)O1` [Example 7, N-[[(5S)-3-[4-(2,3-dihydro-1,1-dioxido-4H-1,4-thiazin-4-yl)-3-fluorophenyl]-2-oxo-5-oxazolidinyl]methyl]acetamide] returned a melting point of 193 to 194 °C. Besides, the MIC in series [1] turned out to be 0.5 µg/mL (≈ 1.3 µM).

Turning to `O=C(NC[C@H]1CN(c2ccc(C3C=CS(=O)(=O)CC3)c(F)c2)C(=O)O1)C(Cl)Cl` (stereo partly drawn) [Example 11, 2,2-dichloro-N-[[(5S)-3-[4-(3,4-dihydro-1,1-dioxido-2H-thiopyran-4-yl)-3-fluorophenyl]-2-oxo-5-oxazolidinyl]methyl]acetamide], the melting point fell in the range of 148 to 150 °C. Besides, in series [1], the MIC amounted to 0.5 µg/mL (≈ 1.11 µM).

As to `CC(=O)NC[C@H]1CN(c2ccc(C3C=CS(=O)(=O)CC3)cc2)C(=O)O1` (stereo partly drawn) [Example 14, N-[[(5S)-3-[4-(3,4-dihydro-1,1-dioxido-2H-thiopyran-4-yl)phenyl]-2-oxo-5-oxazolidinyl]methyl]acetamide], the melting point was in the range of 187 to 189 °C. Besides, in series [1], the MIC was 1 µg/mL (≈ 2.74 µM).

Compound `O=C(NC[C@H]1CN(c2ccc(C3C=CS(=O)(=O)CC3)cc2)C(=O)O1)C(F)F` (stereo partly drawn) [Example 15, N-[[(5S)-3-[4-(3,4-dihydro-1,1-dioxido-2H-thiopyran-4-yl)phenyl]-2-oxo-5-oxazolidinyl]methyl]-2,2-difluoroacetamide] gave a melting point of 135 to 136 °C. For the same compound, in series [1], the MIC turned out to be 0.5 µg/mL (≈ 1.25 µM).

`O=C(NC[C@H]1CN(c2ccc(C3C=CS(=O)(=O)CC3)cc2)C(=O)O1)C(Cl)Cl` (stereo partly drawn) [Example 16, 2,2-dichloro-N-[[(5S)-3-[4-(3,4-dihydro-1,1-dioxido-2H-thiopyran-4-yl)phenyl]-2-oxo-5-oxazolidinyl]methyl]acetamide] displayed a melting point of 159 to 161 °C. Further, the MIC in series [1] came to 0.25 µg/mL (≈ 0.577 µM).

On to `O=C1O[C@@H](CNC(=S)C(F)F)CN1c1ccc(C2C=CS(=O)(=O)CC2)cc1` (stereo partly drawn) [Example 17, [[(5S)-3-[4-(3,4-dihydro-1,1-dioxido-2H-thiopyran-4-yl)phenyl]-2-oxo-5-oxazolidinyl]methyl]-2,2-difluoroethanethioamide], for which the melting point fell in the range of 139 to 140 °C. Further, the MIC in series [1] is 0.25 µg/mL (≈ 0.6 µM).

Take `CCC(=O)NC[C@H]1CN(c2ccc(C3C=CS(=O)(=O)CC3)cc2)C(=O)O1` (stereo partly drawn) [Example 18, N-[[(5S)-3-[4-(3,4-dihydro-1,1-dioxido-2H-thiopyran-4-yl)phenyl]-2-oxo-5-oxazolidinyl]methyl]propionamide]: the melting point was in the range of 144 to 147 °C. In series [1], the MIC is 1 µg/mL (≈ 2.64 µM).

`COC(=O)NC[C@H]1CN(c2ccc(C3C=CS(=O)(=O)CC3)cc2)C(=O)O1` (stereo partly drawn) [Example 19, (S)-[[3-[4-(3,4-dihydro-1,1-dioxido-2H-thiopyran-4-yl)phenyl]-2-oxo-5-oxazolidinyl]methyl]carbamic acid, methyl ester] gave a melting point of 196 to 197 °C. The MIC in series [1] was 2 µg/mL (≈ 5.26 µM).
